US20070059385A1, “Safe pharmaceutical composition for treating and preventing cancer and method of use” (priority 2005, published 2007)

Assay: Metabolism (organ and blood radioactivity) of [^3H]-HHT in P388 mice
Type: in vivo
Conditions: blood
Protocol: Animals: Adult DBA/2J male mice, 6 to 8 weeks old. All animals weighed approximately 25 g when used in experiments. Each member of which received identical dosed (i.p.) of HHT.
Tumor: P388 leukemic cells induced in mice by inoculation with L1210 or P388 leukemic cells ([…]).
After P388 induced in mice 5 days, 1 mg/kg of [^3H]-HHT (100 μC/mg) was injected to mice. Volumes were 0.01 ml/g body weight. […] The key data of HHT in metabolism process are determined counts per minute (CPM) of [^3H]-HHT in organs. CPM is determined by liquid scintillation counting (LSC). The methods of LSC combined with radioactive of [^3H]-HHT can be determined using a tracer of HHT in organs. After killed animals, organs and blood were obtained from P388 mice. Organs were weighted. 10 mg of organs were digested. 10 ml of scintillation solution (which containing […]) were added to digested solution and determined at LSC. Other processes are similar to the standard method.

COC(=O)C[C@](O)(CCCC(C)(C)O)C(=O)O[C@@H]1C(OC)=C[C@]23CCCN2CCc2cc4c(cc2[C@H]13)OCO4 [[^3H]-HHT]
[^3H]-HHT in blood (1 h): 1820 CPM
[^3H]-HHT in blood (2 h): 1650 CPM
[^3H]-HHT in blood (4 h): 1100 CPM
[^3H]-HHT in blood (8 h): 920 CPM
[^3H]-HHT in blood (16 h): 428 CPM
[^3H]-HHT in blood (24 h): 150 CPM
